Measurements published in patent publication US20060127400A1, “Activation of regulatory T cells by alpha-melanocyte stimulating hormone” (THE SCHEPENS EYE RESEARCH INSTITUTE, INC., priority 1999, published 2006).
“Also recorded” adds a separate entry of the source. No end group written: not given here.

Test system: primed T cells
Test: total TGF-β production by TCR-stimulated primed T cells, Mv1Lu (CCL-64) bioassay
Type: cell-based, mouse (BALB/c)
Settings: 48 h
Description: TGF-β bioassay. To measure total TGF-β, 100 μl of conditioned media was pretreated according to standard procedures (24) with 10 μl 1N HCL to lower the media pH to 2 and incubated for 1 hour at 4° C. The acid was neutralized with 20 μl of a 1:1 mixture of 1N NaOH: 1M HEPES returning the culture supernatant to a pH 7.3. The transiently acidified conditioned media was then used in the Mv1Lu assay; diluted 1:4 in EMEM+0.5% FBS. To the wells of a Falcon 96-well flat-bottom plate, 100 μl of diluted transiently acidified samples were added with 100 μl of 1×10^5 Mv1Lu cells (CCL-64; ATCC, Rockville, Md.). The plate was incubated for 20 hours at 37° C., 5% CO2 followed by the addition of 20 μl of 50 μCi/ml 3H-thymidine and the plate was incubated for an additional 4 hours. Supernatant was discarded and 50 μl of 10× Trypsin-EDTA (Biowhittaker, Walkersville, Md.) solution was added to each well and the plate was incubated for 15 minute at 37° C. The cells were collected onto filter paper using a Tomtec Plate Harvester 96 and counts per minute (CPM) of incorporation 3H-thymidine was measured using a Wallac 1205 Betaplate Liquid Scintillation Counter. Cultures of known amounts of purified activated TGF-β1, 20 ng/ml to 0.2 pg/ml (R&:D Systems), were prepared in the same plate for calculating a standard curve to quantify the concentration of total TGF-β in the samples.
Primed T Cell In Vitro Assays. From draining lymph nodes of BALB/c mice immunized 7 days previously with MT-Ag, primed T cells were isolated using CD3 enrichment columns (R&D Systems). T-cells (4×10^5 cells) suspended in serum-free media were added to the wells of a 96 well, round bottom plate (Corning). To the wells were added α-MSH (30 pg/ml) and anti-TCR antibody (2C11; 1 μg/ml) diluted in serum-free culture media. Various concentrations of TGF-β1 or TGF-β2 in media were added. In a second set of experiments TGF-β1 or TGF-β2 at a fixed concentration of 5 ng/ml were added to the wells at various times (0, 2, 4 and 6 hours) after addition of anti-TCR antibody. The cultures were incubated for 24 hours and 0.5 μCi of 3H-thymidine (NEM, Boston, Mass.) was added to the wells and the cultures were incubated for an additional 24 hours. The cells were collected and incorporated radiolabeled was measured by scintillation counting. Production of TGF-β by the treated primed T cells was done by centrifuging the culture plates 24 hours after the addition of anti-TCR antibody, removing the supernatant, washing the cultures once and adding fresh media. […]
FIG. 4 is a bar graph of TGF-β production by primed T cells TCR-stimulated in the presence of α-MSH. […] Significance (p=0.05) was determined by Student's t-test between TGF-β concentrations in cultures of activated α-MSH treated T cells and T cells activated in the absence of α-MSH. […]

α-melanocyte stimulating hormone (SYSMEHFRWGKPV; not fully specified; ends and bridges not checked; UniProt P01189 138-150, looked up) [α-MSH, synthetic α-MSH (Peninsula Laboratories); thirteen-amino acid neuropeptide derived from POMC]
TGF-β production by TCR-stimulated primed T cells (serum-free, transiently acidified supernatant): enhanced levels; also recorded: significantly enhanced
threshold of α-MSH concentration needed to induce TGF-β1 production (TCR-stimulated T cells): 30 pg/mL
